{"source": "PubChem BioAssay AID1259409", "about": "(Chemical Carcinogenesis Research Information System (CCRIS), 2018)", "origin": "cited, not measured here", "tested_on": "rodent chemically induced tumor inhibition, incidence and multiplicity", "assay": "CCRIS tumor inhibitor studies"}
{"smiles": "O=c1cc(-c2ccccc2)oc2c1ccc1ccccc12", "values": [{"measurement": "tumour outcome (control, treated, inhibition, significance)", "setting": "Carcinogen: 2-AMINO-1-METHYL-6-PHENYLIMIDAZO[4,5-B]PYRIDINE [105650-23-5], Dose [Inhibitor]: 1,000 PPM IN DIET FOR 4 WK BEGINNING WK PRIOR TO FIRST CARCINOGEN DOSE (STUDY DURATION: 25 WK), Route [Inhibitor]: ORAL, Species: RAT, Strain/Sex: SPRAGUE-DAWLEY/FEMALE, Target Tissue: Type of Lesion: MAMMARY GLAND: FIBROADENOMA OR DUCTAL CARCINOMA, Dose [Carcinogen]: 85 MG/KG BW 2/WK FOR 4 WK (STUDY DURATION: 25 WK), Promoter: NONE", "value": "63%, 36%, 42%, not significant"}, {"measurement": "tumour outcome (control, treated, inhibition, significance)", "setting": "Carcinogen: 6-HYDROXYMETHYLBENZO[A]PYRENE, 21247-98-3, Dose [Inhibitor]: 100 UG IN 0.2 ML ACETONE ONCE 5 MINUTES BEFORE CARCINOGEN TREATMENT (STUDY DURATION: 31 WK), Route [Inhibitor]: DERMAL, Species: MOUSE, Strain/Sex: CD-1/FEMALE, Target Tissue: Type of Lesion: SKIN: PAPILLOMA, Dose [Carcinogen]: 400 NMOL IN 0.2 ML ACETONE ONCE, Promoter: 12-O-TETRADECANOYLPHORBOL-13-ACETATE, 16561-29-8", "value": "57%, 60%, -5%, not calculated"}, {"measurement": "tumour outcome (control, treated, inhibition, significance)", "setting": "Carcinogen: 6-METHYLBENZO[A]PYRENE, 2381-39-7, Dose [Inhibitor]: 100 UG IN 0.2 ML ACETONE ONCE 5 MINUTES BEFORE CARCINOGEN TREATMENT (STUDY DURATION: 31 WK), Route [Inhibitor]: DERMAL, Species: MOUSE, Strain/Sex: CD-1/FEMALE, Target Tissue: Type of Lesion: SKIN: PAPILLOMA, Dose [Carcinogen]: 400 NMOL IN 0.2 ML ACETONE ONCE, Promoter: 12-O-TETRADECANOYLPHORBOL-13-ACETATE, 16561-29-8", "value": "73%, 40%, 44%, not calculated"}, {"measurement": "tumour outcome (control, treated, inhibition, significance)", "setting": "Carcinogen: 7,12-DIMETHYLBENZ[A]ANTHRACENE, 57-97-6, Dose [Inhibitor]: 0, 0.37 NMOL IN 0.2 ML ACETONE APPLIED 5 MIN PRIOR TO CARCINOGEN (STUDY DURATION: 21 WK), Route [Inhibitor]: DERMAL, Species: MOUSE, Strain/Sex: SENCAR/FEMALE, Target Tissue: Type of Lesion: SKIN: PAPILLOMA, Dose [Carcinogen]: 40 NMOL IN 0.2 ML ACETONE ONCE, Promoter: 12-O-TETRADECANOYLPHORBOL-13-ACETATE, 16561-29-8", "value": "100%, 100%, 0%"}, {"measurement": "tumour outcome (control, treated, inhibition, significance)", "setting": "Carcinogen: 7,12-DIMETHYLBENZ[A]ANTHRACENE, 57-97-6, Dose [Inhibitor]: 0, 3.7 NMOL IN 0.2 ML ACETONE APPLIED 5 MIN PRIOR TO CARCINOGEN (STUDY DURATION: 21 WK), Route [Inhibitor]: DERMAL, Species: MOUSE, Strain/Sex: SENCAR/FEMALE, Target Tissue: Type of Lesion: SKIN: PAPILLOMA, Dose [Carcinogen]: 40 NMOL IN 0.2 ML ACETONE ONCE, Promoter: 12-O-TETRADECANOYLPHORBOL-13-ACETATE, 16561-29-8", "value": "100%, 100%, 0%"}, {"measurement": "tumour outcome (control, treated, inhibition, significance)", "setting": "Carcinogen: 7,12-DIMETHYLBENZ[A]ANTHRACENE, 57-97-6, Dose [Inhibitor]: 0, 37 NMOL IN 0.2 ML ACETONE APPLIED 5 MIN PRIOR TO CARCINOGEN (STUDY DURATION: 21 WK), Route [Inhibitor]: DERMAL, Species: MOUSE, Strain/Sex: SENCAR/FEMALE, Target Tissue: Type of Lesion: SKIN: PAPILLOMA, Dose [Carcinogen]: 10 NMOL IN 0.2 ML ACETONE ONCE, Promoter: 12-O-TETRADECANOYLPHORBOL-13-ACETATE, 16561-29-8", "value": "79%, 60%, 24%, not calculated"}, {"measurement": "tumour outcome (control, treated, inhibition, significance)", "setting": "Carcinogen: 7,12-DIMETHYLBENZ[A]ANTHRACENE, 57-97-6, Dose [Inhibitor]: 0, 37 NMOL IN 0.2 ML ACETONE APPLIED 5 MIN PRIOR TO CARCINOGEN (STUDY DURATION: 21 WK), Route [Inhibitor]: DERMAL, Species: MOUSE, Strain/Sex: SENCAR/FEMALE, Target Tissue: Type of Lesion: SKIN: PAPILLOMA, Dose [Carcinogen]: 40 NMOL IN 0.2 ML ACETONE ONCE, Promoter: 12-O-TETRADECANOYLPHORBOL-13-ACETATE, 16561-29-8", "value": "100%, 87%, 13%, not calculated"}, {"measurement": "tumour outcome (control, treated, inhibition, significance)", "setting": "Carcinogen: 7,12-DIMETHYLBENZ[A]ANTHRACENE, 57-97-6, Dose [Inhibitor]: 0, 370 NMOL IN 0.2 ML ACETONE APPLIED 5 MIN PRIOR TO CARCINOGEN (STUDY DURATION: 21 WK), Route [Inhibitor]: DERMAL, Species: MOUSE, Strain/Sex: SENCAR/FEMALE, Target Tissue: Type of Lesion: SKIN: PAPILLOMA, Dose [Carcinogen]: 10 NMOL IN 0.2 ML ACETONE ONCE, Promoter: 12-O-TETRADECANOYLPHORBOL-13-ACETATE, 16561-29-8", "value": "79%, 46%, 42%, not calculated"}, {"measurement": "tumour outcome (control, treated, inhibition, significance)", "setting": "Carcinogen: 7,12-DIMETHYLBENZ[A]ANTHRACENE, 57-97-6, Dose [Inhibitor]: 0, 370 NMOL IN 0.2 ML ACETONE APPLIED 5 MIN PRIOR TO CARCINOGEN (STUDY DURATION: 21 WK), Route [Inhibitor]: DERMAL, Species: MOUSE, Strain/Sex: SENCAR/FEMALE, Target Tissue: Type of Lesion: SKIN: PAPILLOMA, Dose [Carcinogen]: 40 NMOL IN 0.2 ML ACETONE ONCE, Promoter: 12-O-TETRADECANOYLPHORBOL-13-ACETATE, 16561-29-8", "value": "100%, 97%, 3%, not calculated"}, {"measurement": "tumour outcome (control, treated, inhibition, significance)", "setting": "Carcinogen: 7,12-DIMETHYLBENZ[A]ANTHRACENE, 57-97-6, Dose [Inhibitor]: 25 UG/MOUSE APPLIED 6 HR BEFORE, 5 MIN BEFORE, AND 6 HR AFTER DMBA (STUDY DURATION: 28 WK), Route [Inhibitor]: DERMAL, Species: MOUSE, Strain/Sex: CD-1/FEMALE, Target Tissue: Type of Lesion: SKIN: PAPILLOMA, Dose [Carcinogen]: 2.56 UG APPLIED ONCE 5 MIN AFTER INHIBITOR, Promoter: 12-O-TETRADECANOYLPHORBOL-13-ACETATE, 16561-29-8", "value": "82%, 22%, 73%, not calculated"}, {"measurement": "tumour outcome (control, treated, inhibition, significance)", "setting": "Carcinogen: 7,12-DIMETHYLBENZ[A]ANTHRACENE, 57-97-6, Dose [Inhibitor]: 25 UG/MOUSE APPLIED ONCE 5 MIN BEFORE DMBA (STUDY DURATION: 28 WK), Route [Inhibitor]: DERMAL, Species: MOUSE, Strain/Sex: CD-1/FEMALE, Target Tissue: Type of Lesion: SKIN: PAPILLOMA, Dose [Carcinogen]: 2.56 UG APPLIED ONCE 5 MIN AFTER INHIBITOR, Promoter: 12-O-TETRADECANOYLPHORBOL-13-ACETATE, 16561-29-8", "value": "82%, 48%, 41%, not calculated"}, {"measurement": "tumour outcome (control, treated, inhibition, significance)", "setting": "Carcinogen: 7,12-DIMETHYLBENZ[A]ANTHRACENE, 57-97-6, Dose [Inhibitor]: 100 UG IN 0.2 ML ACETONE ONCE 5 MIN BEFORE CARCINOGEN TREATMENT (STUDY DURATION: 31 WK), Route [Inhibitor]: DERMAL, Species: MOUSE, Strain/Sex: CD-1/FEMALE, Target Tissue: Type of Lesion: SKIN: PAPILLOMA, Dose [Carcinogen]: 10 NMOL IN 0.2 ML ACETONE ONCE, Promoter: 12-O-TETRADECANOYLPHORBOL-13-ACETATE, 16561-29-8", "value": "90%, 38%, 58%, not calculated"}]}
